From US11319347B2, “Peptide compound and method for producing same, composition for screening use, and method for selecting peptide compound” (FUJIFILM Corporation, priority 2017, dated 2022)
Starred links: 1 amine or outer side, 2 acyl side, 3 side chain; linkers in the order of their positions; H or OH if unused. Positions of bridges follow the written chain, without caps; N, C: chain ends. Non-standard residues stand in square brackets, D forms with d. Residues, ends and D or L forms follow the SMILES beside them. Phe(3-(4R-CO-2-thiazolinyl)) = O=C([C@H](Cc1cccc(C2=N[C@H](C(=O)[*:3])CS2)c1)N[*:1])[*:2]; dCha = N[C@H](CC1CCCCC1)C(=O)O; Nle = CCCC[C@H](N)C(=O)O

What was measured:
[1] = Metabolic stability of cyclic peptides in human liver microsomes (HLM residual rate); assay type: in vitro ADME; details: 1 μmol/L, human liver microsomes 0.5 mg protein/mL, 37° C., 20 minutes, NADPH and UDPGA
Procedure: Test of metabolic stability of cyclic peptide in human liver microsome
An experiment using human liver microsomes (HLMs) was carried out in order to compare and examine the metabolic stability of the synthesized cyclic peptides.
The compound with a final concentration of 1 μmol/L was incubated in human liver microsomes (BD Cat #452117) prepared to a final concentration of 0.5 mg protein/mL using 100 mmol/L phosphate buffer (pH 7.4) at 37° C. for 20 minutes in the presence of reduced nicotinamide adenine dinucleotide phosphate (NADPH) and uridine 5′-diphosphate-α-D-glucuronic acid (UDPGA). Deproteinization treatment with acetonitrile was carried out, the amount of unaltered substance remaining was quantified using LC/MS/MS, and the residual rate (%) in 20 minutes was calculated. The HLM residual rate (%) obtained by this method is described in the following table.
(§1) Evaluation standards are as follows.

[2] = Membrane permeability of synthesized cyclic peptides by PAMPA (Measurement Method A: 1 μmol/L; Method B: 10 μmol/L); assay type: in vitro ADME; details: 25° C., 4 hours
Procedure: Evaluation of membrane permeability of synthesized cyclic peptide by PAMPA method In order to compare and examine the membrane permeability of the synthesized cyclic peptide, parallel artificial membrane permeability assay (PAMPA) was carried out.
An artificial phospholipid membrane was produced by adding 5 μL of a phospholipid organic solvent solution consisting of L-α-phosphatidylcholine (Avanti Polar Lipids, Inc., Cat. 840051P, 1.67%), 1,2-dioleoyl-sn-glycero-3-phospho-L-serine (Avanti Polar Lipids, Inc., Cat. 840035P, 0.33%), and n-dodecane special grade (Wako Pure Chemical Industries, Ltd., 047-21612)/1-octanol reagent special grade (Kanto Chemical Co., Inc., Cat. 31013-08)=10:1 to Filter Plate (Merck Millipore Corporation, Cat. MAIPN4550).
475 μL of 50 mmol/L potassium phosphate buffer (KPB, pH 7.4 or pH 6.5) was added to 25 μL of a DMSO solution containing the compound at a concentration of 20 μmol/L, so that the compound was diluted to a final concentration of 1 μmol/L. 300 μL of the compound solution was added to the lower side (donor side) of PAMPA 96-well plate (Filter Plate (Merck Millipore Corporation, Cat. MAIPN4550)) with an artificial phospholipid membrane being interposed therebetween. 200 μL of 5% DMSO KPB (pH 7.4) was added to the upper side (acceptor side) with the artificial phospholipid membrane being interposed therebetween. A permeation test through an artificial phospholipid membrane was carried out at 25° C. for 4 hours. The compound concentration in the solution in the donor plate and the acceptor plate was measured by LC/MS/MS, and the membrane permeation rate (Pe) of the compound was calculated from the following formula, assuming that C0 is an initial compound concentration in donor solution, t is a test time, A is a membrane filter area=0.3 cm^2, VD is a donor solution amount=300 μL, VA is an acceptor solution amount=200 μL, and CD(t) is a compound concentration in donor solution at time t, CA(t) is a compound concentration in acceptor solution at time t, and Cequilibrium=[CD(t)*VD+CA(t)*VA]/(VD+VA).
475 μL of 50 mmol/L potassium phosphate buffer (KPB, pH 7.4 or pH 6.5) was added to 25 μL of a DMSO solution containing the compound at a concentration of […], so that the compound was diluted to a final concentration of 10 μmol/L. The compound solution was added 300 μL each to the lower side (donor side) of an artificial phospholipid membrane of PAMPA 96-well plate (Filter Plate (Merck Millipore Corporation, Cat. MAIPN4550)). 200 μL of 5% DMSO KPB (pH 7.4) was added to the upper side (acceptor side) with the artificial phospholipid membrane being interposed therebetween. A permeation test through an artificial phospholipid membrane was carried out at 25° C. for 4 hours. The compound concentration in the solution in the donor plate and the acceptor plate was measured by LC/MS/MS, and the membrane permeation rate (Pe) of the compound was calculated from the following formula, assuming that Co is an initial compound concentration in donor solution, t is a test time, A is a membrane filter area=0.3 cm^2, VD is a donor solution amount=300 μL, VA is an acceptor solution amount=200 μL, and CD(t) is a compound concentration in donor solution at time t, CA(t) is a compound concentration in acceptor solution at time t, and Cequilibrium=[CD(t)*VD+CA(t)*VA]/(VD+VA).
The membrane permeability (Pe(10^−6 cm/s)) obtained by this method is described in the following table.
as §1

[3] = Measurement method B (10 μmol/L)

N=C(N)NCCC[C@@H]1NC(=O)[C@H](Cc2c[nH]c3ccccc23)NC(=O)[C@@H](CC2CCCCC2)NC(=O)[C@@H]2CCCN2C(=O)[C@@H]2CSC(=N2)c2cncc(n2)C[C@@H](C(N)=O)NC1=O [2-14]
HLM residual rate [1]: +++ (60%<HLM residual rate (%))

CC(C)C[C@@H]1NC(=O)[C@@H](C(C)C)NC(=O)[C@H](C)NC(=O)CC[C@@H](C(N)=O)NC(=O)[C@@H](CCC(=O)O)NC(=O)[C@@H](Cc2c[nH]c3ccccc23)NC1=O [8-3] (A[dV]L[dW][dE]E-NH2; lactam N-6)
Pe(10^−6 cm/sec) ([2]; Measurement method A): − (0.01≤Pe (10^−6 cm/s))

NC(=O)[C@@H]1Cc2csc(c2)C2=N[C@@H](CS2)C(=O)N[C@H](Cc2ccc(O)cc2)C(=O)NCC(=O)NCC(=O)N[C@H](Cc2ccccc2)C(=O)N1 [4-3]
Pe(10^−6 cm/sec) ([2]; Measurement method A): +++ (0.5<Pe (10^−6 cm/s))

C[C@@]12CSC(=N1)c1cc(cs1)C[C@@H](C(N)=O)NC(=O)[C@H](CCCNC(=N)N)NC(=O)[C@H](Cc1c[nH]c3ccccc13)NC(=O)[C@@H](CC1CCCCC1)NC(=O)C1CCCN1C2=O (stereo partly shown) [a-1-1]
Pe(10^−6 cm/sec) ([2]; Measurement method A): +++ (0.5<Pe (10^−6 cm/s))

CC(C)C[C@@H]1NC(=O)[C@@H](C(C)C)NC(=O)[C@@H]2CSC(=N2)c2cccc(c2)C[C@@H](C(N)=O)NC(=O)[C@@H](CCC(=O)O)NC(=O)[C@@H](Cc2c[nH]c3ccccc23)NC1=O [5-1] ([dV]L[dW][dE][Phe(3-(4R-CO-2-thiazolinyl))]-NH2; lactam N-5)
Pe(10^−6 cm/sec) ([2]; Measurement method A): +++ (0.5<Pe (10^−6 cm/s))

N=C(N)NCCC[C@@H]1NC(=O)[C@H](Cc2c[nH]c3ccccc23)NC(=O)[C@@H](CC2CCCCC2)NC(=O)[C@@H]2CCCN2C(=O)[C@@H]2CSC(=N2)c2cnc3cc(ccc3c2)C[C@@H](C(N)=O)NC1=O [2-4]
Pe(10^−6 cm/sec) ([2]; Measurement method A): +++ (0.5<Pe (10^−6 cm/s))

C[C@@H]1NC(=O)CSC[C@@H](C(N)=O)NC(=O)[C@H]([C@@H](C)O)NC(=O)[C@H](CCCCN)NC(=O)[C@@H](Cc2c[nH]c3ccccc23)NC(=O)[C@H](Cc2ccccc2)NC1=O [7-3] ({CH2CO}-AF[dW]KTC-NH2; thioether N-6)
Pe(10^−6 cm/sec) ([2]; Measurement method A): − (0.01≤Pe (10^−6 cm/s))

N=C(N)NCCC[C@@H]1NC(=O)[C@H](Cc2c[nH]c3ccccc23)NC(=O)[C@@H](CC2CCCCC2)NC(=O)[C@@H]2CCCN2C(=O)[C@@H]2CSC(=N2)c2coc(n2)-c2csc(n2)C[C@@H](C(N)=O)NC1=O [a-1-10]
Pe(10^−6 cm/sec) ([2]; Measurement method A): +++ (0.5<Pe (10^−6 cm/s))

N=C(N)NCCC[C@@H]1NC(=O)[C@H](Cc2c[nH]c3ccccc23)NC(=O)[C@@H](CC2CCCCC2)NC(=O)[C@@H]2CCCN2C(=O)[C@@H]2CSC(=N2)c2ccc(cn2)C[C@@H](C(N)=O)NC1=O [3-1]
Pe(10^−6 cm/sec) ([2]; Measurement method A): +++ (0.5<Pe (10^−6 cm/s))

N=C(N)NCCC[C@@H]1NC(=O)[C@H](Cc2c[nH]c3ccccc23)NC(=O)[C@@H](CC2CCCCC2)NC(=O)[C@@H]2CCCN2C(=O)[C@@H]2CSC(=N2)c2cn3cc(ncc3n2)-c2cccc(c2)C[C@@H](C(N)=O)NC1=O [a-1-14]
Pe(10^−6 cm/sec) [2, 3]: +++ (0.5<Pe (10^−6 cm/s))

Cn1ccc2cc3c(nc21)C1=N[C@@H](CS1)C(=O)N1CCC[C@H]1C(=O)N[C@H](CC1CCCCC1)C(=O)N[C@@H](Cc1c[nH]c2ccccc12)C(=O)N[C@@H](CCCNC(=N)N)C(=O)N[C@H](C(N)=O)C3 [a-1-4]
Pe(10^−6 cm/sec) ([2]; Measurement method A): +++ (0.5<Pe (10^−6 cm/s))

CC(C)C[C@@H]1NC(=O)[C@@H]2CSC(=N2)c2cccc(c2)C[C@@H](C(N)=O)NC(=O)[C@H](CC(C)C)NC(=O)[C@H](C)NC(=O)[C@H](Cc2ccccc2)NC(=O)[C@H](C)NC(=O)[C@@H]2CCCN2C(=O)[C@H](C)NC(=O)[C@H](CC(C)C)NC(=O)[C@H](CC(C)C)NC(=O)[C@@H]2CCCN2C(=O)[C@H](CC(C)C)NC(=O)[C@H](CCCNC(=N)N)NC(=O)[C@H](CC(C)C)NC1=O [a-3-1] (LLRLPLLAPAFAL[Phe(3-(4R-CO-2-thiazolinyl))]-NH2; lactam N-14)
Pe(10^−6 cm/sec) [2, 3]: +++ (0.5<Pe (10^−6 cm/s))

N=C(N)NCCC[C@@H]1NC(=O)[C@H](Cc2c[nH]c3ccccc23)NC(=O)[C@@H](CC2CCCCC2)NC(=O)[C@@H]2CCCN2C(=O)[C@@H]2CSC(=N2)c2ccc(s2)C(=O)NCCOCCOCCOCCOc2ccc(cc2)C[C@@H](C(N)=O)NC1=O [a-1-9]
Pe(10^−6 cm/sec) ([2]; Measurement method A): +++ (0.5<Pe (10^−6 cm/s))

CC(C)C[C@@H]1NC(=O)[C@@H]2CSC(=N2)c2cccc(c2)C[C@@H](C(=O)N[C@@H](C)C(=O)N[C@@H](CC(C)C)C(=O)N[C@@H](Cc2ccccc2)C(=O)N[C@@H](CC(C)C)C(=O)N[C@@H](C)C(N)=O)NC(=O)[C@@H]2CCCN2C(=O)[C@H](CCCCN)NC1=O [a-3-2] (LKP[Phe(3-(4R-CO-2-thiazolinyl))]ALFLA-NH2; lactam N-4)
Pe(10^−6 cm/sec) ([2]; Measurement method A): ++ (0.2<Pe (10^−6 cm/s)≤0.5)

CC(C)C[C@@H]1NC(=O)[C@@H](C(C)C)NC(=O)[C@@H]2CSC(=N2)c2cc(cs2)C[C@@H](C(N)=O)NC(=O)[C@@H](CCC(=O)O)NC(=O)[C@@H](Cc2c[nH]c3ccccc23)NC1=O [4-4]
Pe(10^−6 cm/sec) ([2]; Measurement method A): ++ (0.2<Pe (10^−6 cm/s)≤0.5)

C[C@@H]1NC(=O)CC[C@@H](C(N)=O)NC(=O)[C@H](CCCNC(=N)N)NC(=O)[C@H](Cc2c[nH]c3ccccc23)NC(=O)[C@@H](CC2CCCCC2)NC(=O)[C@@H]2CCCN2C1=O [8-1] (AP[dCha]WRE-NH2; lactam N-6)
Pe(10^−6 cm/sec) ([2]; Measurement method A): + (0.01<Pe (10^−6 cm/s)≤0.2)

N=C(N)NCCC[C@@H]1NC(=O)[C@H](Cc2c[nH]c3ccccc23)NC(=O)[C@@H](CC2CCCCC2)NC(=O)[C@@H]2CCCN2C(=O)[C@@H]2CSC(=N2)C2=Cc3ccc(cc3S2)C[C@@H](C(N)=O)NC1=O [2-2]
Pe(10^−6 cm/sec) ([2]; Measurement method A): +++ (0.5<Pe (10^−6 cm/s))

C[C@@H]1NC(=O)CSC[C@@H](C(N)=O)NC(=O)[C@@H](Cc2ccccc2)NC(=O)CNC(=O)CNC(=O)[C@@H](Cc2ccc(O)cc2)NC1=O [7-2] ({CH2CO}-A[dY]GG[dF]C-NH2; thioether N-6)
Pe(10^−6 cm/sec) ([2]; Measurement method A): + (0.01<Pe (10^−6 cm/s)≤0.2)

N=C(N)NCCC[C@@H]1NC(=O)[C@H](Cc2c[nH]c3ccccc23)NC(=O)[C@@H](CC2CCCCC2)NC(=O)[C@@H]2CCCN2C(=O)[C@@H]2CSC(=N2)c2csc(n2)-c2csc(n2)C[C@@H](C(N)=O)NC1=O [a-1-11]
Pe(10^−6 cm/sec) ([2]; Measurement method A): +++ (0.5<Pe (10^−6 cm/s))

CCCC[C@@H]1NC(=O)[C@H](CCCCN)NC(=O)[C@H](CC(C)C)NC(=O)[C@H](CC(C)C)NC(=O)[C@H](C)NC(=O)CSC[C@@H](C(N)=O)NC(=O)[C@H](Cc2ccccc2)NC(=O)[C@H](CO)NC(=O)[C@H](C)NC(=O)[C@@H]2CCCN2C1=O [7-6] ({CH2CO}-ALLK[Nle]PASFC-NH2; thioether N-10)
Pe(10^−6 cm/sec) ([2]; Measurement method A): Below the limit

NC(=O)[C@@H]1Cc2csc(c2)C2=N[C@@H](CCS2)C(=O)N[C@H](Cc2ccc(O)cc2)C(=O)NCC(=O)NCC(=O)N[C@H](Cc2ccccc2)C(=O)N1 [4-2]
Pe(10^−6 cm/sec) ([2]; Measurement method A): +++ (0.5<Pe (10^−6 cm/s))

N=C(N)NCCC[C@@H]1NC(=O)[C@H](Cc2c[nH]c3ccccc23)NC(=O)[C@@H](CC2CCCCC2)NC(=O)[C@@H]2CCCN2C(=O)[C@@H]2CSC(=N2)c2cn(cn2)-c2ccc(cc2)C[C@@H](C(N)=O)NC1=O [a-1-5]
Pe(10^−6 cm/sec) [2, 3]: ++ (0.2<Pe (10^−6 cm/s)≤0.5)
